Results taken from ChEMBL document CHEMBL4800722, “Data for DCP probe BI 605906” (2021).

Legend:
[1] = molecular target: Nitric oxide synthase 3 (Rattus norvegicus) (UniProt Q62600); assay: CNOS Eurofins SafetyScreen44 (BI); conditions: Compound concentration 10.0 uM
[2] = molecular target: Sodium-dependent noradrenaline transporter (Homo sapiens) (UniProt P23975); assay: NETRANS/H Eurofins SafetyScreen44 (BI); conditions: Compound concentration 10.0 uM
[3] = molecular target: AMPK alpha1/beta1/gamma3 (Homo sapiens) (UniProt Q9Y478+Q13131+Q9UGI9); assay: AMPK (A1/B1/G3) Invitrogen Lab (UK) kinase screen (BI); type: protein-complex assay; conditions: Compound concentration 1.0 uM
[4] = molecular target: Cyclin-C/Cyclin-dependent kinase 19 (Homo sapiens) (UniProt Q9BWU1+P24863); assay: CDK11/CYCLIN C Invitrogen Lab (UK) kinase screen (BI); type: protein-complex assay; conditions: Compound concentration 1.0 uM
[5] = molecular target: Cytoplasmic tyrosine-protein kinase BMX (Homo sapiens) (UniProt P51813); assay: BMX Invitrogen Lab (UK) kinase screen (BI); conditions: Compound concentration 1.0 uM
[6] = molecular target: Phosphorylase b kinase gamma catalytic chain, skeletal muscle/heart isoform (Homo sapiens) (UniProt Q16816); assay: PHKG1 Invitrogen Lab (UK) kinase screen (BI); conditions: Compound concentration 1.0 uM
[7] = molecular target: Phosphatidylinositol 4,5-bisphosphate 3-kinase catalytic subunit gamma isoform (Homo sapiens) (UniProt P48736); assay: PIK3CG Invitrogen Lab (UK) kinase screen (BI); conditions: Compound concentration 1.0 uM
[8] = molecular target: Protein kinase C epsilon type (Homo sapiens) (UniProt Q02156); assay: PRKCE Invitrogen Lab (UK) kinase screen (BI); conditions: Compound concentration 1.0 uM
[9] = molecular target: Sphingosine kinase 1 (Homo sapiens) (UniProt Q9NYA1); assay: SPHK1 Invitrogen Lab (UK) kinase screen (BI); conditions: Compound concentration 1.0 uM
[10] = molecular target: Serine/threonine-protein kinase 33 (Homo sapiens) (UniProt Q9BYT3); assay: STK33 Invitrogen Lab (UK) kinase screen (BI); conditions: Compound concentration 1.0 uM
[11] = molecular target: Calcium/calmodulin-dependent protein kinase type 1 (Homo sapiens) (UniProt Q14012); assay: CAMK1 DUNDEE kinase screen (BI); conditions: Compound concentration 10.0 uM
[12] = molecular target: Serine/threonine-protein kinase Nek7 (Homo sapiens) (UniProt Q8TDX7); assay: NEK7 DUNDEE kinase screen (BI); conditions: Compound concentration 10.0 uM
[13] = molecular target: cAMP-dependent protein kinase (PKA) (Homo sapiens) (UniProt P22694+P17612+P22612); assay: PKA(REC) DUNDEE kinase screen (BI); type: protein assay; conditions: Compound concentration 10.0 uM
[14] = molecular target: Serine/threonine-protein kinase PLK1 (Homo sapiens) (UniProt P53350); assay: PLK1 DUNDEE kinase screen (BI); conditions: Compound concentration 10.0 uM
[15] = molecular target: MAP kinase-activated protein kinase 5 (Homo sapiens) (UniProt Q8IW41); assay: PRAK DUNDEE kinase screen (BI); conditions: Compound concentration 10.0 uM
[16] = molecular target: GABA-A receptor; anion channel (Rattus norvegicus) (UniProt O09028+P15431+P18506+P18508+P19969+P20236+P23574+P23576+P28471+P28473+P30191+P62813+P63079+P63138+Q91ZM7+Q9ES14); conditions: Compound concentration 10.0 uM
[17] = molecular target: Prostaglandin G/H synthase 1 (Homo sapiens) (UniProt P23219); conditions: Compound concentration 10.0 uM
[18] = molecular target: D(2) dopamine receptor (Homo sapiens) (UniProt P14416); conditions: Compound concentration 10.0 uM
[19] = molecular target: Nitric oxide synthase, inducible (Mus musculus) (UniProt P29477); conditions: Compound concentration 10.0 uM
[20] = molecular target: Collagenase 3 (Homo sapiens) (UniProt P45452); conditions: Compound concentration 10.0 uM
[21] = molecular target: Calcium/calmodulin-dependent protein kinase type 1G (Homo sapiens) (UniProt Q96NX5); conditions: Compound concentration 1.0 uM
[22] = molecular target: Interferon-induced, double-stranded RNA-activated protein kinase (Homo sapiens) (UniProt P19525); conditions: Compound concentration 1.0 uM
[23] = molecular target: Serine/threonine-protein kinase 17B (Homo sapiens) (UniProt O94768); conditions: Compound concentration 1.0 uM
[24] = molecular target: Dual specificity testis-specific protein kinase 2 (Homo sapiens) (UniProt Q96S53); conditions: Compound concentration 1.0 uM
[25] = molecular target: TRAF2 and NCK-interacting protein kinase (Homo sapiens) (UniProt Q9UKE5); conditions: Compound concentration 1.0 uM
[26] = molecular target: Serine/threonine-protein kinase ULK1 (Homo sapiens) (UniProt O75385); conditions: Compound concentration 1.0 uM
[27] = molecular target: AMP-activated protein kinase (AMPK) alpha-1/beta-1/gamma-1 (Homo sapiens) (UniProt P54619+Q9Y478+Q13131)
[28] = molecular target: Tyrosine-protein kinase receptor UFO (Homo sapiens) (UniProt P30530)
[29] = molecular target: Tyrosine-protein kinase JAK2 (Homo sapiens) (UniProt O60674); conditions: Compound concentration 1.0 uM
[30] = molecular target: LIM domain kinase 2 (Homo sapiens) (UniProt P53671); conditions: Compound concentration 1.0 uM
[31] = molecular target: Mitogen-activated protein kinase kinase kinase 2 (Homo sapiens) (UniProt Q9Y2U5); conditions: Compound concentration 1.0 uM
[32] = molecular target: Serine/threonine-protein kinase Nek9 (Homo sapiens) (UniProt Q8TD19); conditions: Compound concentration 1.0 uM
[33] = molecular target: Serine/threonine-protein kinase pim-1 (Homo sapiens) (UniProt P11309)
[34] = molecular target: Protein kinase C delta type (Homo sapiens) (UniProt Q05655); conditions: Compound concentration 1.0 uM
[35] = molecular target: cGMP-dependent protein kinase 1 (Homo sapiens) (UniProt Q13976); conditions: Compound concentration 1.0 uM
[36] = molecular target: cGMP-dependent protein kinase 2 (Homo sapiens) (UniProt Q13237); conditions: Compound concentration 1.0 uM
[37] = molecular target: Focal adhesion kinase 1 (Homo sapiens) (UniProt Q05397); conditions: Compound concentration 1.0 uM
[38] = molecular target: Ribosomal protein S6 kinase alpha-6 (Homo sapiens) (UniProt Q9UK32); conditions: Compound concentration 1.0 uM
[39] = molecular target: STE20-like serine/threonine-protein kinase (Homo sapiens) (UniProt Q9H2G2); conditions: Compound concentration 1.0 uM
[40] = molecular target: Serine/threonine-protein kinase 16 (Homo sapiens) (UniProt O75716); conditions: Compound concentration 1.0 uM
[41] = molecular target: SRSF protein kinase 3 (Homo sapiens) (UniProt Q9UPE1); conditions: Compound concentration 1.0 uM
[42] = molecular target: Serine/threonine-protein kinase TBK1 (Homo sapiens) (UniProt Q9UHD2); conditions: Compound concentration 1.0 uM

Serine/threonine-protein kinase pim-1 (Homo sapiens), sequence (P11309 whole entry, looked up): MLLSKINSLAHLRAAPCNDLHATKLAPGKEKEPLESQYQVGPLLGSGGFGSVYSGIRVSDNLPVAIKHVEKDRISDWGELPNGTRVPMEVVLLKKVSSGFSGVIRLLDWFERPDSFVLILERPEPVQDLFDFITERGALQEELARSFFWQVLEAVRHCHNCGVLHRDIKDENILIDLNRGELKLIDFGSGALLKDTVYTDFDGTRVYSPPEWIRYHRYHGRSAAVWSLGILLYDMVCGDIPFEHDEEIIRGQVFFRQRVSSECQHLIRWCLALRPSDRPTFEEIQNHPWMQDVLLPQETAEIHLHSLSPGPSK
Tyrosine-protein kinase receptor UFO (Homo sapiens), sequence (P30530 whole entry): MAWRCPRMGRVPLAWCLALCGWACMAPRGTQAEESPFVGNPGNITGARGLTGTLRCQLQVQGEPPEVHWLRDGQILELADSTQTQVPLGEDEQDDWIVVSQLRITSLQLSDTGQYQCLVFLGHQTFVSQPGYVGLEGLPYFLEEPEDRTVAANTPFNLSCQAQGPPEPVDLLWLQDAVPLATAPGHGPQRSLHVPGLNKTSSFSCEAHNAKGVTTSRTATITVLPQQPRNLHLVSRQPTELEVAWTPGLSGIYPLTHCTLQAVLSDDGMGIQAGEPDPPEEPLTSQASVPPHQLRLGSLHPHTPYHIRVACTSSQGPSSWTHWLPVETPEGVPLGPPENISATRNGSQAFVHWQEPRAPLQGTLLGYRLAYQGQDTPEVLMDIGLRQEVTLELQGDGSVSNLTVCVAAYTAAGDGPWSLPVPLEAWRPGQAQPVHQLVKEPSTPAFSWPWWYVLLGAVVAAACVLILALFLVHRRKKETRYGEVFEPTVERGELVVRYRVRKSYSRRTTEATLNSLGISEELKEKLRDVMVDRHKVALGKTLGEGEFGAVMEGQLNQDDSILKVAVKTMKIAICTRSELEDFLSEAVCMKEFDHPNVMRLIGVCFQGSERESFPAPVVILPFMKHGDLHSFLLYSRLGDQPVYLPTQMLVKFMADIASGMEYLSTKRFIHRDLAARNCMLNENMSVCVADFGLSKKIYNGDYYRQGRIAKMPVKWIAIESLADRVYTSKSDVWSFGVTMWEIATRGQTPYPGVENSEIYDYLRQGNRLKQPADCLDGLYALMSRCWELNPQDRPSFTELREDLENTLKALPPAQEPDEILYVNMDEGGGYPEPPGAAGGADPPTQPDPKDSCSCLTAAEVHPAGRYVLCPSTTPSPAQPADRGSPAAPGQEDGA
AMP-activated protein kinase (AMPK) alpha-1/beta-1/gamma-1 (Homo sapiens), sequence (P54619 whole entry): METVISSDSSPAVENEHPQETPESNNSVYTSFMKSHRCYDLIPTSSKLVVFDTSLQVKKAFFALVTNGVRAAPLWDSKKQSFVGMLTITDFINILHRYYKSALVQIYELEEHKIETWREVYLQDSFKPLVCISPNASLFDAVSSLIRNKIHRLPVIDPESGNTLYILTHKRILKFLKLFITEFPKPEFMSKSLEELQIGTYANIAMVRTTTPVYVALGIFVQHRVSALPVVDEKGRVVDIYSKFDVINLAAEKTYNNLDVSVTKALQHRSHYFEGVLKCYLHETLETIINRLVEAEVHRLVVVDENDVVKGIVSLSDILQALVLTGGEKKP
AMP-activated protein kinase (AMPK) alpha-1/beta-1/gamma-1 (Homo sapiens), sequence (Q13131 whole entry partner): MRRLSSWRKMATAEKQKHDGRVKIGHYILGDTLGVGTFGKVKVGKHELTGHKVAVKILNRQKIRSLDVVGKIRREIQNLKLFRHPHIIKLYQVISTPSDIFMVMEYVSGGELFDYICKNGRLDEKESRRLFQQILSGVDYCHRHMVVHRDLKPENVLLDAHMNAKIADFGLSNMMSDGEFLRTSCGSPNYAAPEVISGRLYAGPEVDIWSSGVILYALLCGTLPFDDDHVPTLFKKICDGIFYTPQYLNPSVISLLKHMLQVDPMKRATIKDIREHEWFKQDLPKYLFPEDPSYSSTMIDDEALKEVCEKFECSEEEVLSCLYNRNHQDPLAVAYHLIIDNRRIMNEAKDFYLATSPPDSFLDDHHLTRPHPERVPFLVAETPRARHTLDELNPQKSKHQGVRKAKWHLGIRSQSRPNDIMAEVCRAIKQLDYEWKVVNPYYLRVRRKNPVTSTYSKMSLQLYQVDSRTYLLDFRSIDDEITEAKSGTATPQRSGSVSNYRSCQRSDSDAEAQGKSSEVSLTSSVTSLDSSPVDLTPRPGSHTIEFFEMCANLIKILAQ
AMP-activated protein kinase (AMPK) alpha-1/beta-1/gamma-1 (Homo sapiens), sequence (Q9Y478 2-270 partner limits assumed): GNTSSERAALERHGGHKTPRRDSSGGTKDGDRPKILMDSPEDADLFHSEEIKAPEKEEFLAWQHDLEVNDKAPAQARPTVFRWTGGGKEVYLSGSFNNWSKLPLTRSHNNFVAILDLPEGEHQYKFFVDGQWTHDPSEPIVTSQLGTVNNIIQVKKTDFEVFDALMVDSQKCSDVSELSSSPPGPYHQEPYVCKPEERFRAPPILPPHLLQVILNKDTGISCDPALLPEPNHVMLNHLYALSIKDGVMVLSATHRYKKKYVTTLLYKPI
Ribosomal protein S6 kinase alpha-6 (Homo sapiens), sequence (Q9UK32 whole entry): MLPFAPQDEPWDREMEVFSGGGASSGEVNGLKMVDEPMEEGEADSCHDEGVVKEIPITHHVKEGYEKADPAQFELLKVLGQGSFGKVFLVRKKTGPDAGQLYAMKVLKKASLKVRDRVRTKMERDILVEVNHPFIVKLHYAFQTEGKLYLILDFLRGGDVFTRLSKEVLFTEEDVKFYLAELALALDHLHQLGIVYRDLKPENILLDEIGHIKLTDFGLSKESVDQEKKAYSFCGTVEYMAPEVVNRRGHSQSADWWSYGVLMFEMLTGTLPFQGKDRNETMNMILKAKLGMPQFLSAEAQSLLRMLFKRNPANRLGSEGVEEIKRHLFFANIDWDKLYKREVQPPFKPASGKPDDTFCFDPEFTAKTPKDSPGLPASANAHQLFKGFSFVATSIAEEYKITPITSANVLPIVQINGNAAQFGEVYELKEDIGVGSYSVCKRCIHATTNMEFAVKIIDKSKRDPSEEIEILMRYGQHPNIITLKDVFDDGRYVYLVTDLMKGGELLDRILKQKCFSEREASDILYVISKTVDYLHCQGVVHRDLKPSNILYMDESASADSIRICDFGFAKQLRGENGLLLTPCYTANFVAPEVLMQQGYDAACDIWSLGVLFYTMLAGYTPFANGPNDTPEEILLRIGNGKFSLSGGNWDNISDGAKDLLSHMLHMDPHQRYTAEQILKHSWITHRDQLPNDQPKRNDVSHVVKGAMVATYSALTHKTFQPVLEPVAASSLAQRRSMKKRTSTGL
Calcium/calmodulin-dependent protein kinase type 1G (Homo sapiens), sequence (Q96NX5 whole entry): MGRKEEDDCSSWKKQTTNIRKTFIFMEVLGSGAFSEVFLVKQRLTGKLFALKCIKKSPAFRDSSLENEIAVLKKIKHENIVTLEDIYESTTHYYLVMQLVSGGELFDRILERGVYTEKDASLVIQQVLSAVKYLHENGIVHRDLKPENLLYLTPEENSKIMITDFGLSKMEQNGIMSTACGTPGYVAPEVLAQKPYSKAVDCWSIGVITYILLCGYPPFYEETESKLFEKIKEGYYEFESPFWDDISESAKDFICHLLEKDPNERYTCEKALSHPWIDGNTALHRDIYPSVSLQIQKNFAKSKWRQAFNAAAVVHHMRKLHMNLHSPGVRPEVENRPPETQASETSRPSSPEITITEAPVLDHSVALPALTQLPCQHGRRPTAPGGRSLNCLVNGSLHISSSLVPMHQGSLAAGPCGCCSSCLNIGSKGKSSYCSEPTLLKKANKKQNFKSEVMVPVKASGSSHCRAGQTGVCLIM
Serine/threonine-protein kinase 33 (Homo sapiens), sequence (Q9BYT3 whole entry, looked up): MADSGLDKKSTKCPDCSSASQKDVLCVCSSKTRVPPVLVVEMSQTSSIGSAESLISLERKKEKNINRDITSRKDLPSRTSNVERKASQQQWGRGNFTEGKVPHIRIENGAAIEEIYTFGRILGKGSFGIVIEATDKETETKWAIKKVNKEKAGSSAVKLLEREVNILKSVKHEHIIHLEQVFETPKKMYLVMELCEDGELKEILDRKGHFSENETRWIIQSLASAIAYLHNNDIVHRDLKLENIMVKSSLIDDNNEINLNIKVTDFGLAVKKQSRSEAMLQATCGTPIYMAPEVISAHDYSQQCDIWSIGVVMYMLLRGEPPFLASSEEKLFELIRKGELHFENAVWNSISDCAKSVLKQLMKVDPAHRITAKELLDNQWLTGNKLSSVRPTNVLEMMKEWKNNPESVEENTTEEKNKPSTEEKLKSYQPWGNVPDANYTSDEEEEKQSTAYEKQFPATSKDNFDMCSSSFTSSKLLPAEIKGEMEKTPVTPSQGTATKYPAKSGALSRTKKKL
Sphingosine kinase 1 (Homo sapiens), sequence (Q9NYA1 whole entry): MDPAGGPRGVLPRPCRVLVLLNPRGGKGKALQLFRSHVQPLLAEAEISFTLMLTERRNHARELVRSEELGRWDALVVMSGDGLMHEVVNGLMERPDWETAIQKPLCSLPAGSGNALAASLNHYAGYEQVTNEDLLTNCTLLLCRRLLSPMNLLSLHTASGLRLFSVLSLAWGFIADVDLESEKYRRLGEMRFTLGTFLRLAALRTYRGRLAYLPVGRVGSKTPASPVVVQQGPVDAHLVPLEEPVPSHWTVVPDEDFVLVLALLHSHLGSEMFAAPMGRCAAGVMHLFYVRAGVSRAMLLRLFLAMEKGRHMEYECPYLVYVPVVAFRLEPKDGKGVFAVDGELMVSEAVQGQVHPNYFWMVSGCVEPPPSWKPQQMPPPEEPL
Calcium/calmodulin-dependent protein kinase type 1 (Homo sapiens), sequence (Q14012 whole entry, looked up): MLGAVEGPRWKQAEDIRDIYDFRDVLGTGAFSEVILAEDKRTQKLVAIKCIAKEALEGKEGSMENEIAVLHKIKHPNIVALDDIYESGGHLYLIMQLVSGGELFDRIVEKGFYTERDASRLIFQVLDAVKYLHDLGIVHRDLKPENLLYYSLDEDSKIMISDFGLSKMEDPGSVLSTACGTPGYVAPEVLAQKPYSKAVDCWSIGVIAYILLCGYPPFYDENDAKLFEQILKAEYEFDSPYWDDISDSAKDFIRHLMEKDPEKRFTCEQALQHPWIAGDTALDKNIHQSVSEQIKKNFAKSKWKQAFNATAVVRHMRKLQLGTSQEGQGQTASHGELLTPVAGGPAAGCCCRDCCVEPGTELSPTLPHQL

CCC(F)(F)c1cc(N2CCC(S(C)(=O)=O)CC2)nc2sc(C(N)=O)c(N)c12 [BI-605906]
inactive: residual activity [1] 102% | residual activity [2] 112% | residual activity [3] 84% | residual activity [4] 83% | residual activity [5] 88% | residual activity [6] 103% | residual activity [7] 102% | residual activity [8] 127% | residual activity [9] 81% | residual activity [10] 88% | residual activity [11] 78.4% | residual activity [12] 104% | residual activity [13] 61.7% | residual activity [14] 86.8% | residual activity [15] 61.1% | inhibition [16] 32.6% | residual activity [17] 105% | residual activity [18] 100% | residual activity [19] 108% | residual activity [20] 90% | residual activity [21] 90% | residual activity [22] 96% | residual activity [23] 97% | residual activity [24] 90% | residual activity [25] 99% | residual activity [26] 94% | residual activity ([27]; Compound concentration 1.0 uM) 95% | residual activity ([27]; Compound concentration 10.0 uM) 80% | residual activity ([28]; Compound concentration 1.0 uM) 98% | residual activity ([28]; Compound concentration 10.0 uM) 85% | residual activity [29] 94% | residual activity [30] 95% | residual activity [31] 92% | residual activity [32] 99% | residual activity ([33]; Compound concentration 1.0 uM) 90% | residual activity ([33]; Compound concentration 10.0 uM) 99% | residual activity [34] 109% | residual activity [35] 97% | residual activity [36] 108% | residual activity [37] 87% | residual activity [38] 98% | residual activity [39] 99% | residual activity [40] 91% | residual activity [41] 99% | residual activity [42] 96%
